*1 amine or outer side, *2 acyl side, *3 side chain or, on linkers, in order; H or OH if unused. Where a SMILES comes first, the peptide text is derived from it. Side-chain parts run from the residue outwards. [ ]: non-standard residue; d: D form. The star is where a group is joined. C20 diacid = O=C(O)CCCCCCCCCCCCCCCCCCC(=O)*; γGlu = O=C(O)[C@H](CCC(=O)[*:2])N[*:1]; AEEA = NCCOCCOCC(=O)O; Aib = CC(C)(N)C(=O)O

Series [1] addresses serum albumin (Rattus norvegicus, UniProt P02770). As to the kind of experiment: Fraction unbound (fu) in plasma by surface plasmon resonance, rat. In kind it is in vitro ADME. As to conditions: SPR binding to serum albumin. How it is done: (§1) Conventional methods of measuring plasma protein binding, such as equilibrium dialysis, ultrafiltration and ultracentrifugation, are not reliable with peptides because of their tendency to adsorb to the surface of plastic tubing, dialysis membranes and molecular weight cut-off filters. As a result, the extent to which acylated peptides bind to serum albumin was evaluated using surface plasmon resonance (SPR).
On the technique in general: In SPR one partner is held on a chip, and binding of the other changes the refractive index at the surface.

Series [2] has as its target serum albumin (Macaca fascicularis, UniProt A2V9Z4). As to the kind of experiment: Fraction unbound (fu) in plasma by surface plasmon resonance, monkey. In kind it is in vitro ADME. Particulars: SPR binding to serum albumin. How it is done: as §1

serum albumin (Rattus norvegicus, UniProt P02770), sequence (P02770 25-608): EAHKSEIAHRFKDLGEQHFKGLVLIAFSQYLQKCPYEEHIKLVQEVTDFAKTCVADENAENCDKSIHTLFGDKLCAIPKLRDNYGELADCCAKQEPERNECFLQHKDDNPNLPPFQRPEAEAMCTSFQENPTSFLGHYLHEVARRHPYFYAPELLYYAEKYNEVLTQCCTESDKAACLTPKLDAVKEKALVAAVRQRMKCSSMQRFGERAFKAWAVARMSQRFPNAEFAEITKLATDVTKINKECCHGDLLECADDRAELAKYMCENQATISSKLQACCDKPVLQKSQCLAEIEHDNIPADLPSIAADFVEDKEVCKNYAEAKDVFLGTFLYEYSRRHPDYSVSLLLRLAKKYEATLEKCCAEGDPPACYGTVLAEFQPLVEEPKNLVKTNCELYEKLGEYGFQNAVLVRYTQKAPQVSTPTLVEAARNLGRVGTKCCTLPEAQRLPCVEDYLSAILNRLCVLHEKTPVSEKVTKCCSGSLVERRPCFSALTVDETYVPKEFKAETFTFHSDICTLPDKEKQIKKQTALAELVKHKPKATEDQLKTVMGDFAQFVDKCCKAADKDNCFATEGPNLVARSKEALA
serum albumin (Macaca fascicularis, UniProt A2V9Z4), sequence (A2V9Z4 25-608): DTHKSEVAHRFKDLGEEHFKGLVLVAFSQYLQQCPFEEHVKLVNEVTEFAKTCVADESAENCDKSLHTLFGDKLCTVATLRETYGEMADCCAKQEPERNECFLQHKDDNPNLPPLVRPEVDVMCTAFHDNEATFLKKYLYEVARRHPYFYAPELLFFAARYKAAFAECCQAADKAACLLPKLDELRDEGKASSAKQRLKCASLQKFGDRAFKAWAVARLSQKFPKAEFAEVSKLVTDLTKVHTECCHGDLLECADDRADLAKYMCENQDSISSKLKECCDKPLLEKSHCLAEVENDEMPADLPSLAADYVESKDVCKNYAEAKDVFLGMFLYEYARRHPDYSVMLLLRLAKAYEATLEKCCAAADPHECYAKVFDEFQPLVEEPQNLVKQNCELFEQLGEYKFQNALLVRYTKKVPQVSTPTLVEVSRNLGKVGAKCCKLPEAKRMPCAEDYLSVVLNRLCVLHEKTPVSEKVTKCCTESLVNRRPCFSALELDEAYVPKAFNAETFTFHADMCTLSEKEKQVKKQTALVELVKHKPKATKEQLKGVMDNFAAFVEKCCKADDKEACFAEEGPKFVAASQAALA

For orientation: fraction unbound means free concentration divided by total concentration. Take `CC(C)C[C@H](NC(=O)[C@H](Cc1ccc(O)cc1)NC(=O)[C@H](CCCCN)NC(=O)[C@H](CO)NC(=O)[C@H](Cc1ccc(O)cc1)NC(=O)[C@H](CC(=O)O)NC(=O)[C@H](CO)NC(=O)[C@@H](NC(=O)[C@H](Cc1ccccc1)NC(=O)[C@@H](NC(=O)CNC(=O)[C@H](Cc1c[nH]cn1)NC(=O)[C@H](CO)NC(=O)[C@@H](N)Cc1ccc(O)cc1)[C@@H](C)O)[C@@H](C)O)C(=O)N[C@@H](CC(=O)O)C(=O)NC(C)(C)C(=O)N[C@@H](CCCCN)C(=O)N[C@@H](Cc1ccc(O)cc1)C(=O)N[C@@H](C)C(=O)N[C@@H](CCC(N)=O)C(=O)N[C@@H](CCCCNC(=O)CC[C@H](NC(=O)CC[C@H](NC(=O)COCCOCCNC(=O)CCCCCCCCCCCCCCCCCCC(=O)O)C(=O)O)C(=O)O)C(=O)N[C@@H](Cc1ccccc1)C(=O)N[C@H](C(=O)NC(C)(C)C(=O)N[C@@H](Cc1c[nH]c2ccccc12)C(=O)N[C@@H](CC(C)C)C(=O)N[C@@H](CCC(=O)O)C(=O)N[C@@H](CC(=O)O)C(=O)N[C@@H](CCC(=O)O)C(=O)N1CCC[C@H]1C(=O)N[C@@H](CO)C(=O)N[C@@H](CO)C(=O)NCC(=O)N[C@@H](C)C(=O)N1CCC[C@H]1C(=O)N1CCC[C@H]1C(=O)N1CCC[C@H]1C(=O)N[C@@H](CO)C(=O)O)C(C)C` [Compound A6] (H-YSHGTFTSDYSKYLD[Aib]KYAQK([γGlu-γGlu-AEEA-C20 diacid])FV[Aib]WLEDEPSSGAPPPS-OH; N-terminus assumed): the figures for the fraction unbound at serum albumin [1] and on serum albumin [2] were 0.0083 and 0.0048, respectively.
